Results reported in patent US20040082558A1, “Administration of estradiol metabolites for inhibition of drug-induced nephrotoxicity” (priority 2002, published 2004).
Marks after values point to notes of the source that are not given here.

Assays:
Type in all cases: in vivo, rat
PAN-treated rats = assay: Mortality during 12-week treatment of PAN-treated rats
Procedure: (§1) After baseline metabolic parameters were measured, animals were randomly assigned to receive subcutaneous saline (3 ml/kg; Control group, n=9) or puromycin aminonucleoside (PAN) (75 mg/kg; drug-induced nephrotoxic animals, n=26). PAN is a drug widely used to produce drug-induced nephrotoxicity in laboratory animals. Grond, J., et al., Contributions to Nephrology 60:83 (1988), the disclosure of which is incorporated herein by reference. Injections of PAN (20 mg/kg) were repeated after 2, 4, 8 and 10 weeks of treatment. Three hours after the initial injections, control animals were implanted with osmotic minipumps (model 2ML4, Alza, Palo Alto, Calif.) containing vehicle (polyethylene glycol 400, 2.5 μl/hour), whereas PAN-treated animals were implanted with osmotic minipumps containing either vehicle (PAN group, n=13) or 2-hydroxyestradiol (10 μg/kg/hour, PAN+2OHE group, n=13). Assignment to the PAN and PAN+2OHE groups was random. Six animals in the PAN group and 2 animals in the PAN+2OHE group died during the treatment, and these animals were not used in the final data analysis.

PAN-nephropathic rats [1] = assay: Plasma testosterone radioimmunoassay; settings: 12 weeks of treatment, male rats
Procedure: An aliquot of mid-point blood sample drawn during the first clearance period was used for testosterone measurements. Plasma testosterone levels were determined by radioimmunoassay using a commercial kit provided by ICN Biomedicals, Inc. (Costa Mesa, Calif.) according to the protocol of the manufacturer.

[2] = tested on: proliferating cell nuclear antigen (PCNA); assay: Glomerular immunohistochemical staining for PCNA, quantitative image analysis; settings: 12 weeks of treatment, kidney sections
Procedure: (§2) Animals were killed by an overdose of anesthetic and kidneys were removed and weighed. One kidney was fixed in 10% formalin buffer and the second kidney was quick-frozen in liquid nitrogen and stored at −70° C. Kidney tissue samples were sectioned and processed into paraffin blocks for light microscopy. For labeling of collagen IV, renal cortical segments (5 μm) were incubated overnight at 4° C. with rabbit anti-mouse collagen IV antibody (dilution 1/500 ) obtained from Chemicon International Inc. (Temecula, Calif.). A primary monoclonal mouse antibody ( 1/200 dilution; Dako Corporation, Carpenteria, Calif.) was used to label proliferating cell nuclear antigen (PCNA). […] Nonspecific staining was assessed by replacing the primary antibody with phosphate buffered saline. […] Immunochemical staining for collagen IV and PCNA quantitatively was done with a SAMBA 4000 image analyzer (Image Products International, Chantilly, Va.) using specialized computer software (Immuno-Analysis, version 4.1, Microsoft, Richmond, Wash.), a color video camera and a Compaq computer. […] Ten high power fields (×400) were assessed for staining density or positively marked cells for ED-1. […] Staining intensity of positive areas was also assessed (mean optical density) and a mean quick score was then calculated (mean optical density×labeling index).

PAN-nephropathic rats [3] = assay: Acute measurements of renal hemodynamics and excretory function at 12 weeks; settings: 12 weeks of treatment
Procedure: as §1
At 12 weeks into treatment, animals were anesthetized with pentobarbital (45 mg/kg i.p.) and instrumented for measurements of renal hemodynamics and excretory function. Two polyethylene (PE)-50 catheters were inserted into left jugular vein for delivery of supplemental anesthetics and saline infusion (50 μl/min), respectively. Another PE-50 catheter was inserted into left carotid artery and connected to a blood-pressure analyzer (Micro-Med., Inc., Louisville, Ky.) for continuous measurement of blood pressure and heart rate. A PE-10 catheter was inserted into the left ureter to facilitate collection of urine, and a flow probe (Model 1RB; Transonic Systems, Inc., Ithaca, N.Y.) was placed on the left renal artery for determination of renal blood flow, which was used to calculate renal vascular resistance. Next, an infusion of ^14C-inulin (0.035 μCi/20 μl saline/min) was initiated and after 60 minutes, two 30-minute clearance periods were conducted. A mid-point blood sample (300 μl) was collected and plasma and urine ^14C-inulin radioactivity was measured. Renal clearance of ^14C-inulin was calculated as an estimate of glomerular filtration rate.

ED1 positive cells = assay: Immunohistochemical staining for ED1 positive cells (macrophage infiltration) in glomeruli and interstitium; settings: 12 weeks of treatment, kidney sections
Procedure: as §2

collagen IV = assay: Glomerular immunohistochemical staining for collagen IV, quantitative image analysis; settings: 12 weeks of treatment, kidney sections
Procedure: as §2

PAN-nephropathic rats [4] = assay: Metabolic cage measurements (24-hour urine, intake, plasma) in PAN-nephropathic rats
Procedure: A total of thirty-five, male Sprague Dawley rats (approximately 290 grams) were used. Rats were housed in the University of Pittsburgh Medical Center animal care facility (temperature, 22° C.; light cycle, 12 hours; relative humidity, 55%). Animals were fed Pro Lab RMH 3000 rodent diet (PMI Nutrition Inc., St Louis, Mo.) and were given water ad libitum. Institutional guidelines for animal welfare were followed, and the University of Pittsburgh Institutional Animal Care and Use Committee approved experimental protocols.
Before initiating treatment, and 3, and 6 and 11 weeks into the treatments, animals were placed in metabolic cages and allowed to acclimatize for two days before conducting the 24-hour measurements of urine volume, food and water intake and urinary sodium, potassium, creatinine, and protein excretion. Tail vein blood samples were also taken for measurement of plasma sodium, potassium, albumin and creatinine. Plasma and urine samples were analyzed for sodium and potassium concentrations using a flame photometer (Model IL-943; Instrumentations Laboratory Inc., Lexington, Ma.) and for creatinine concentrations using a creatinine analyzer (Creatinine Analyzer 2, Beckman Instrument, Inc., Fullerton Calif., USA). Total urine proteins were measured by a spectrophotometric assay using bicinchoninic acid reagent (Pierce; Rockford, Ill.) and a modification of Lowry method. Lowry, O. H., et al., J. Biol. Chem. 193: 265 (1951), the disclosure of which is incorporated herein by reference.
as §1

Q: With `C[C@]12CC[C@@H]3c4cc(O)c(O)cc4CC[C@H]3[C@@H]1CC[C@@H]2O` [2-OHE, 2-hydroxyestradiol] as the compound, how does the “Reduction of PAN-induced mortality” value (PAN-treated rats; 2-hydroxyestradiol 10 μg/kg/hour by osmotic minipump) read?
A: The value was 66%.

Q: What about the “Animals died during the treatment” value (PAN-treated rats; n=13 per group) of the same compound?
A: The value was 2 animals.

Q: And the Plasma testosterone levels (PAN-nephropathic rats [1])?
A: The Plasma testosterone levels was 0.91 ± 0.22 ng/mL.

Q: And the “Labeling index of glomerular immunoreactive PCNA (in words, FIG. 3)” value [2]?
A: Its value is “significantly reduced the labeling index of glomerular immunoreactive PCNA”.

Q: And the “Blood pressure (in words)” value (PAN-nephropathic rats [3])?
A: Its value is “abolished PAN-induced changes in blood pressure”.

Q: And the “GFR, inulin clearance (in words)” value (PAN-nephropathic rats [3])?
A: The value was “significantly attenuated PAN-induced changes in GFR”.

Q: And the Hematocrit (PAN-nephropathic rats [3])?
A: The Hematocrit was 30 ± 3%.

Q: What about the “Left Kidney” value (PAN-nephropathic rats [3]) of the same compound?
A: The value was 2.34 ± 0.09 g.

Q: What about the “Glomerular Filtration Rate” value (PAN-nephropathic rats [3]; 14C-inulin clearance) of the same compound?
A: The value was 0.54 ± 0.06^b ml/min/g kidney.

Q: And the Body Weight (PAN-nephropathic rats [3]; acute experiment)?
A: The Body Weight was 353 ± 15.

Q: What about the “Mean Blood Pressure” value (PAN-nephropathic rats [3]; anesthetized) of the same compound?
A: The value was 138.2 ± 4^b mm Hg.

Q: What about the “Renal Blood Flow” value (PAN-nephropathic rats [3]; anesthetized) of the same compound?
A: Its value is 2.80 ± 0.18 ml/min/g kidney.

Q: And the “Renal Plasma Flow” value (PAN-nephropathic rats [3]; anesthetized)?
A: The value was 1.96 ± 0.12 ml/min/g kidney.

Q: And the “Renal Vascular Resistance” value (PAN-nephropathic rats [3]; anesthetized)?
A: Its value is 58.5 ± 4.5 mm Hg/ml/min/g kid.

Q: What about the “Urine Volume” value (PAN-nephropathic rats [3]; anesthetized) of the same compound?
A: Its value is 3.33 ± 0.26 μl/min/g kidney.

Q: And the “Number of ED1 positive cells in glomeruli and interstitium (in words, FIG. 4)” value (ED1 positive cells)?
A: Its value is “significantly (P<0.001) reduced the number of inflammatory cells in glomeruli and in the interstitium”.

Q: And the “Glomerular collagen IV, labeling index (in words, FIGS. 5 and 6)” value (collagen IV)?
A: Its value is “significantly reduced the labeling index of glomerular immunoreactive collagen IV”.

Q: And the “Body Weight” value (PAN-nephropathic rats [4]; 0 wks of treatment (baseline))?
A: Its value is 291 ± 5 g.

Q: What about the “Creatinine Excretion” value (PAN-nephropathic rats [4]; 0 wks of treatment (baseline)) of the same compound?
A: Its value is 13.0 ± 1.0 mg/day.

Q: What about the “FE - K+ (fractional excretion of potassium)” value (PAN-nephropathic rats [4]; 0 wks of treatment (baseline)) of the same compound?
A: The value was 11.6 ± 1.4%.

Q: And the “FE - Na+ (fractional excretion of sodium)” value (PAN-nephropathic rats [4]; 0 wks of treatment (baseline))?
A: Its value is 0.18 ± 0.03%.

Q: And the “Fluid Intake” value (PAN-nephropathic rats [4]; 0 wks of treatment (baseline))?
A: The value was 5.37 ± 0.25 mL/h/kg.

Q: And the “Food Intake” value (PAN-nephropathic rats [4]; 0 wks of treatment (baseline))?
A: Its value is 76 ± 2 g/kg/day.

Q: And the “Plasma Cholesterol” value (PAN-nephropathic rats [4]; 0 wks of treatment (baseline))?
A: Its value is 51.2 ± 2.2 mg/dL.

Q: What about the “Potassium Excretion” value (PAN-nephropathic rats [4]; 0 wks of treatment (baseline)) of the same compound?
A: Its value is 7.54 ± 0.52 mEq/day/kg.

Q: What about the “Sodium Excretion” value (PAN-nephropathic rats [4]; 0 wks of treatment (baseline)) of the same compound?
A: The value was 3.35 ± 0.18 mEq/day/kg.

Q: And the “Urine Volume” value (PAN-nephropathic rats [4]; 0 wks of treatment (baseline))?
A: Its value is 1.68 ± 0.167 mL/h/kg.

Q: What about the “Creatinine Excretion” value (PAN-nephropathic rats [4]; 3 wks of treatment) of the same compound?
A: Its value is 10.9 ± 0.7 mg/day.

Q: And the “FE - K+ (fractional excretion of potassium)” value (PAN-nephropathic rats [4]; 3 wks of treatment)?
A: Its value is 32.1 ± 4.4 %.

Q: And the “FE - Na+ (fractional excretion of sodium)” value (PAN-nephropathic rats [4]; 3 wks of treatment)?
A: Its value is 0.50 ± 0.10%.

Q: What about the “Fluid Intake” value (PAN-nephropathic rats [4]; 3 wks of treatment) of the same compound?
A: Its value is 7.04 ± 0.667 mL/h/kg.

Q: And the “Food Intake” value (PAN-nephropathic rats [4]; 3 wks of treatment)?
A: The value was 75 ± 4 g/kg/day.

Q: What about the “Plasma Cholesterol” value (PAN-nephropathic rats [4]; 3 wks of treatment) of the same compound?
A: The value was 315 ± 39.3 mg/dL.

Q: And the “Potassium Excretion” value (PAN-nephropathic rats [4]; 3 wks of treatment)?
A: Its value is 12.3 ± 0.61 mEq/day/kg.

Q: What about the “Sodium Excretion” value (PAN-nephropathic rats [4]; 3 wks of treatment) of the same compound?
A: Its value is 5.76 ± 0.57 mEq/day/kg.

Q: What about the “Urine Volume” value (PAN-nephropathic rats [4]; 3 wks of treatment) of the same compound?
A: Its value is 3.62 ± 0.292 mL/h/kg.

Q: And the “Creatinine Excretion” value (PAN-nephropathic rats [4]; 6 wks of treatment)?
A: The value was 9.8 ± 0.7 mg/day.

Q: What about the “FE - K+ (fractional excretion of potassium)” value (PAN-nephropathic rats [4]; 6 wks of treatment) of the same compound?
A: Its value is 17.3 ± 2.5 %.

Q: And the “FE - Na+ (fractional excretion of sodium)” value (PAN-nephropathic rats [4]; 6 wks of treatment)?
A: Its value is 0.34 ± 0.04%.

Q: What about the “Fluid Intake” value (PAN-nephropathic rats [4]; 6 wks of treatment) of the same compound?
A: The value was 5.92 ± 0.5 mL/h/kg.

Q: And the “Food Intake” value (PAN-nephropathic rats [4]; 6 wks of treatment)?
A: The value was 60 ± 5 g/kg/day.

Q: What about the “Plasma Cholesterol” value (PAN-nephropathic rats [4]; 6 wks of treatment) of the same compound?
A: The value was 248.3 ± 19.3 mg/dL.

Q: What about the “Potassium Excretion” value (PAN-nephropathic rats [4]; 6 wks of treatment) of the same compound?
A: Its value is 9.17 ± 0.63 mEq/day/kg.

Q: What about the “Sodium Excretion” value (PAN-nephropathic rats [4]; 6 wks of treatment) of the same compound?
A: Its value is 4.21 ± 0.43 mEq/day/kg.

Q: What about the “Urine Volume” value (PAN-nephropathic rats [4]; 6 wks of treatment) of the same compound?
A: The value was 2.99 ± 0.292 mL/h/kg.

Q: And the “Creatinine Excretion” value (PAN-nephropathic rats [4]; 11 wks of treatment)?
A: Its value is 12.8 ± 2.8 mg/day.

Q: What about the “FE - K+ (fractional excretion of potassium)” value (PAN-nephropathic rats [4]; 11 wks of treatment) of the same compound?
A: The value was 29.7 ± 1.7 %.

Q: What about the “FE - Na+ (fractional excretion of sodium)” value (PAN-nephropathic rats [4]; 11 wks of treatment) of the same compound?
A: The value was 0.37 ± 0.04%.

Q: What about the “Fluid Intake” value (PAN-nephropathic rats [4]; 11 wks of treatment) of the same compound?
A: Its value is 6.12 ± 0.583 mL/h/kg.

Q: What about the “Food Intake” value (PAN-nephropathic rats [4]; 11 wks of treatment) of the same compound?
A: Its value is 58 ± 6 g/kg/day.

Q: What about the “Plasma Cholesterol” value (PAN-nephropathic rats [4]; 11 wks of treatment) of the same compound?
A: The value was 340.6 ± 27.3 mg/dL.

Q: What about the “Potassium Excretion” value (PAN-nephropathic rats [4]; 11 wks of treatment) of the same compound?
A: Its value is 8.36 ± 1.25 mEq/day/kg.

Q: And the “Sodium Excretion” value (PAN-nephropathic rats [4]; 11 wks of treatment)?
A: Its value is 3.12 ± 0.66 mEq/day/kg.

Q: And the “Urine Volume” value (PAN-nephropathic rats [4]; 11 wks of treatment)?
A: The value was 3.44 ± 0.312 mL/h/kg.

Q: And the “Creatinine clearance (in words, FIGS. 1B and 1C)” value (PAN-nephropathic rats [4]; chronic treatment)?
A: The value was “attenuated the decline in creatinine clearance caused by PAN”.

Q: What about the “Plasma creatinine levels (in words, FIG. 1A)” value (PAN-nephropathic rats [4]; chronic treatment) of the same compound?
A: The value was “attenuated PAN-induced increases in plasma creatinine levels”.

Q: What about the “UPE corrected for creatinine clearance (UPE/CrCl; in words, FIG. 2B)” value (PAN-nephropathic rats [4]; chronic treatment) of the same compound?
A: Its value is “this effect became even more significant”.

Q: What about the “Urinary protein excretion (UPE; in words, FIG. 2A)” value (PAN-nephropathic rats [4]; chronic treatment) of the same compound?
A: Its value is “reduced PAN-induced increases in urinary protein excretion”.
